The values that follow come from patent US12661355B2, “Compounds and methods for inducing UCP1 expression” (The Regents of the University of California, priority 2020, dated 2026).

For one assay, the target named is T1, AKAP6 (Mus musculus, UniProt E9Q9K8).
T1 construct: endogenous in cells; host or cells: immortalized mouse brown adipocytes
Nature of the assay: CETSA in brown adipocytes, AKAP6. In kind it is binding. Particulars: 10 μM for 8 h. As to the method: CETSA assays were performed according to known methods. Briefly, differentiated brown adipocytes (one 10 cm dish per treatment) were treated with vehicle or compounds, trypsinized, counted, and re-suspended in approximately 450 μl PBS containing protease inhibitors (volumes were adjusted to have the same number of cells in each treatment). For each sample, 18 μl was distributed into each of 7 PCR tubes. Samples were heated using a thermocycler with a temperature gradient (iCycler, Biorad) for 3 min, followed by 3 min at room temperature, and then snap-frozen in liquid N2. After two freeze-thaw cycles, samples were centrifuged at 20,000 g for 15 min at 4° C., and the supernatants were transferred to another set of tubes. Proteins were analyzed by immunoblotting.
The potential interaction of Z160 with PKA subunits and AKAPs was assessed first by identifying which PKA subunits and AKAP isoforms are normally present in BAT. […] To perform the CETSA assays, cultured brown adipocytes were incubated with 10 μM Z160 for 8 h, after which the thermal shift was analyzed by Western blot.

The subject of assay [1] is human brown adipocyte cell line. Nature of the assay: Cellular respiration in human brown adipocytes. In kind it is cell-based. Conditions: 10 μM for 4 days. As to the method:
Human immortalized brown and white preadipocytes were obtained from Dr. Yu-Hua Tseng (Joslin Diabetes Center, Harvard Medical School, USA). The generation of the two cell lines from human neck adipose tissue biopsies and immortalization was performed as previously described but from a different donor. Cells were cultured in high glucose DMEM supplemented with 10% FBS and antibiotics. Two days after reaching confluence, cells were treated with 30 μM biotin, 500 nM insulin, 17 μM pantothenate, 100 nM dexamethasone, 2 nM 3,3′,5-Triiodo-L-thyronine, 500 μM IBMX, 30 μM indomethacin and 1 μM rosiglitazone, for 12 days. […]
Cellular respiration was measured using a Seahorse XF24 or XF96 analyzer (Agilent) following known protocols Immortalized brown adipocytes were differentiated in 6-well plates and replated in the Seahorse XF24 plates at a density of 50,000 cells per well using trypsin and collagenase type II. […] Oxygen consumption rates were measured before and after the sequential injection of 1 μM oligomycin, 1 μM FCCP, and 0.5 μM rotenone/antimycin A. For these cells, results were normalized to cell count determined by nuclei fluorescent staining with Hoescht staining imaged on Cytation 5 Imaging Reader and analysis with Gen5 software (BioTek). […] Maximal respiration was determined after FCCP injection.

Another assay has as its target T2, AKAP13 (Rattus norvegicus, UniProt F1M3G7).
T2 construct: DARTS assay in H9c2 cell extracts treated with vehicle or 20 μM Z160 for 1 h; endogenous in cells; host or cells: rat H9c2 cells
Nature of the assay: DARTS in H9c2 cell extracts, AKAP13. In kind it is binding. Particulars: 20 μM, 1 h. On the procedure:
Rat H9c2 cells were grown in DMEM supplemented with 10% FBS, 25 mM glucose, 1 mM pyruvate, and 2 mM glutamine Neonatal rat ventricular myocytes (NRVM) were isolated and cultured as previously described. Briefly, 2-4 day old rats were sacrificed and myocytes and fibroblasts were isolated and separated using a Percoll density gradient. Following isolation, NRVMs were plated on gelatin-coated plates in DMEM containing 10% FBS, 25 mM glucose, 1 mM pyruvate, and 2 mM glutamine The next day, FBS was replaced by 1× insulin-transferrin-selenium supplement and the cells were treated with vehicle or 10 μM Z160 for 2 days, with or without 60 μM isoproterenol or 50 μM phenylephrine.
[…] assays were performed according to known methods. Briefly, BAT or cells within a 10 cm dish were lysed with 600 μl M-PER buffer containing protease and phosphatase inhibitors. Debris was pelleted by centrifugation at 18,000 g for 10 min at 4° C., and the lysates were harvested and supplemented with TNC buffer (50 mM Tris-HCl, 50 mM NaCl, 10 mM CaCl2). The lysates were split into two tubes and treated with either vehicle or 20 μM Z160 for 1 h at room temperature. For experiment with BAT, 100 μg of lysate was incubated with different Z160 concentrations. […]

“Also recorded” adds a separate entry of the source.

T2 sequence (F1M3G7 whole entry): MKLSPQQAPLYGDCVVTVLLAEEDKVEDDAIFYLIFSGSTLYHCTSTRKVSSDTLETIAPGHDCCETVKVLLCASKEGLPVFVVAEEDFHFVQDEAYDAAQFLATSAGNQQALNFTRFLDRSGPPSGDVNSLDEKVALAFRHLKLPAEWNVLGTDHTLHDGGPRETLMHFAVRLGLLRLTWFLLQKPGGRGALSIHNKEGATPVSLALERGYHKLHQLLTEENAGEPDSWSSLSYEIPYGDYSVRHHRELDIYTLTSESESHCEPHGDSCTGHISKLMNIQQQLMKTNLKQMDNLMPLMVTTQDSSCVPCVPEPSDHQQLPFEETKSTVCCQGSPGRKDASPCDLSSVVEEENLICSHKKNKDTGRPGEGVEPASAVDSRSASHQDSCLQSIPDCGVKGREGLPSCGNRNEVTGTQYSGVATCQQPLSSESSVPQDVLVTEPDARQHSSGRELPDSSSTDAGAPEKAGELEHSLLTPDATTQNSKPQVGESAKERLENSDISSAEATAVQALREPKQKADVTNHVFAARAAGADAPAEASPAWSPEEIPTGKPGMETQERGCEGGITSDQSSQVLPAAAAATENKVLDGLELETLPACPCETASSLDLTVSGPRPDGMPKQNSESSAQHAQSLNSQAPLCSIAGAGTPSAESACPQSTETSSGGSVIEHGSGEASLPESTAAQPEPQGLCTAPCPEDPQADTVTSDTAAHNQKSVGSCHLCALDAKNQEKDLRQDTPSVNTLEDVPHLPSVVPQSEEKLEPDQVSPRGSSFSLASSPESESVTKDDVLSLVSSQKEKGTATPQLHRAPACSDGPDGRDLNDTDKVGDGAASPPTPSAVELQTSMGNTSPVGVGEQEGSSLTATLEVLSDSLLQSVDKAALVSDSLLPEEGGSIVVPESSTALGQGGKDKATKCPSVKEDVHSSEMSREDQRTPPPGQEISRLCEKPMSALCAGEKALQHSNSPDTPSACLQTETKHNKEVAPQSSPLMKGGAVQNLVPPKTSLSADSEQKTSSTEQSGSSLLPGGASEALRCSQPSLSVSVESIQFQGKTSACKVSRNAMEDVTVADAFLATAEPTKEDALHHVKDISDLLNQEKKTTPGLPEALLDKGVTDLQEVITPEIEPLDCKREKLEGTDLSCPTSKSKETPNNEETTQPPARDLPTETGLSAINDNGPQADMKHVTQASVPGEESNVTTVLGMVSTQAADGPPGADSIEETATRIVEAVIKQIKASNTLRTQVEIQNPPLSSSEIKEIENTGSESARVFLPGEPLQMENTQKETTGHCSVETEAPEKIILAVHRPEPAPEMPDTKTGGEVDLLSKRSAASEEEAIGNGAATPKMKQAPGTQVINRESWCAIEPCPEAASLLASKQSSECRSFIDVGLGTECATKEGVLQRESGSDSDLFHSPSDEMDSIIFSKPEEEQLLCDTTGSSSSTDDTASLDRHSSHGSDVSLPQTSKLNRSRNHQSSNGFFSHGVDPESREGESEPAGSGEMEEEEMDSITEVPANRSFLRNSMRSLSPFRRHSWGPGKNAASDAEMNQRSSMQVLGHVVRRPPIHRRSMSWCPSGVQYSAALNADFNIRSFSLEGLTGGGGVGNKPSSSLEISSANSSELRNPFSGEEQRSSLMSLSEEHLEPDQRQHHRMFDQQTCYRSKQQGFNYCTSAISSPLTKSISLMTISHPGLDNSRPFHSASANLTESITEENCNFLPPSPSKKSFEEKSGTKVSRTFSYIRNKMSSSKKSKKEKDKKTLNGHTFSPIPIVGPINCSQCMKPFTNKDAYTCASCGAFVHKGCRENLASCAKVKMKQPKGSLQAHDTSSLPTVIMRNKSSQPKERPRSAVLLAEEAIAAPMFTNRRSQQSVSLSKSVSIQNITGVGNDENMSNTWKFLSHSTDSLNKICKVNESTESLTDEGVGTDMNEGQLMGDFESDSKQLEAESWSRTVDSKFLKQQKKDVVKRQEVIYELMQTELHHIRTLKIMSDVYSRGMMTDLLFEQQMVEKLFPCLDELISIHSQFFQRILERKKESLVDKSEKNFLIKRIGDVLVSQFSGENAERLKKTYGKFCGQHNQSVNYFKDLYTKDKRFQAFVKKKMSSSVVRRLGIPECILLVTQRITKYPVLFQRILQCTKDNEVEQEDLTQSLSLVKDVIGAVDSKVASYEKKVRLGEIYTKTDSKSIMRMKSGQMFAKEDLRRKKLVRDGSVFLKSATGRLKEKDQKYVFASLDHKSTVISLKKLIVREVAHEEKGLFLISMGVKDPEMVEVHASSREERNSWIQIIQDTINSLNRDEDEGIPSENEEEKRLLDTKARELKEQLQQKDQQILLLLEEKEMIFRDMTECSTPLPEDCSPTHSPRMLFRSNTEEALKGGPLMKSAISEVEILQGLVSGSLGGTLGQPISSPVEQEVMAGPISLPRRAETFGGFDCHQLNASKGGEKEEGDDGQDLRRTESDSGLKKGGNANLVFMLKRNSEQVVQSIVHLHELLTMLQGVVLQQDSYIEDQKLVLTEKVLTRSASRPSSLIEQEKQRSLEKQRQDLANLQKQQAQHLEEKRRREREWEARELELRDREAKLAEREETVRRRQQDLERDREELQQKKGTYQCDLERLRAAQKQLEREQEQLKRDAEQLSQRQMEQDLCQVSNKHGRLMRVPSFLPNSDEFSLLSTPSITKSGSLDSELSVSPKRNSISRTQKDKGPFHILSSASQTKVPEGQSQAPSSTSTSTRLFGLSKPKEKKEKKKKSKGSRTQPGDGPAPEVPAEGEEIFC
T1 sequence (E9Q9K8 1-2307): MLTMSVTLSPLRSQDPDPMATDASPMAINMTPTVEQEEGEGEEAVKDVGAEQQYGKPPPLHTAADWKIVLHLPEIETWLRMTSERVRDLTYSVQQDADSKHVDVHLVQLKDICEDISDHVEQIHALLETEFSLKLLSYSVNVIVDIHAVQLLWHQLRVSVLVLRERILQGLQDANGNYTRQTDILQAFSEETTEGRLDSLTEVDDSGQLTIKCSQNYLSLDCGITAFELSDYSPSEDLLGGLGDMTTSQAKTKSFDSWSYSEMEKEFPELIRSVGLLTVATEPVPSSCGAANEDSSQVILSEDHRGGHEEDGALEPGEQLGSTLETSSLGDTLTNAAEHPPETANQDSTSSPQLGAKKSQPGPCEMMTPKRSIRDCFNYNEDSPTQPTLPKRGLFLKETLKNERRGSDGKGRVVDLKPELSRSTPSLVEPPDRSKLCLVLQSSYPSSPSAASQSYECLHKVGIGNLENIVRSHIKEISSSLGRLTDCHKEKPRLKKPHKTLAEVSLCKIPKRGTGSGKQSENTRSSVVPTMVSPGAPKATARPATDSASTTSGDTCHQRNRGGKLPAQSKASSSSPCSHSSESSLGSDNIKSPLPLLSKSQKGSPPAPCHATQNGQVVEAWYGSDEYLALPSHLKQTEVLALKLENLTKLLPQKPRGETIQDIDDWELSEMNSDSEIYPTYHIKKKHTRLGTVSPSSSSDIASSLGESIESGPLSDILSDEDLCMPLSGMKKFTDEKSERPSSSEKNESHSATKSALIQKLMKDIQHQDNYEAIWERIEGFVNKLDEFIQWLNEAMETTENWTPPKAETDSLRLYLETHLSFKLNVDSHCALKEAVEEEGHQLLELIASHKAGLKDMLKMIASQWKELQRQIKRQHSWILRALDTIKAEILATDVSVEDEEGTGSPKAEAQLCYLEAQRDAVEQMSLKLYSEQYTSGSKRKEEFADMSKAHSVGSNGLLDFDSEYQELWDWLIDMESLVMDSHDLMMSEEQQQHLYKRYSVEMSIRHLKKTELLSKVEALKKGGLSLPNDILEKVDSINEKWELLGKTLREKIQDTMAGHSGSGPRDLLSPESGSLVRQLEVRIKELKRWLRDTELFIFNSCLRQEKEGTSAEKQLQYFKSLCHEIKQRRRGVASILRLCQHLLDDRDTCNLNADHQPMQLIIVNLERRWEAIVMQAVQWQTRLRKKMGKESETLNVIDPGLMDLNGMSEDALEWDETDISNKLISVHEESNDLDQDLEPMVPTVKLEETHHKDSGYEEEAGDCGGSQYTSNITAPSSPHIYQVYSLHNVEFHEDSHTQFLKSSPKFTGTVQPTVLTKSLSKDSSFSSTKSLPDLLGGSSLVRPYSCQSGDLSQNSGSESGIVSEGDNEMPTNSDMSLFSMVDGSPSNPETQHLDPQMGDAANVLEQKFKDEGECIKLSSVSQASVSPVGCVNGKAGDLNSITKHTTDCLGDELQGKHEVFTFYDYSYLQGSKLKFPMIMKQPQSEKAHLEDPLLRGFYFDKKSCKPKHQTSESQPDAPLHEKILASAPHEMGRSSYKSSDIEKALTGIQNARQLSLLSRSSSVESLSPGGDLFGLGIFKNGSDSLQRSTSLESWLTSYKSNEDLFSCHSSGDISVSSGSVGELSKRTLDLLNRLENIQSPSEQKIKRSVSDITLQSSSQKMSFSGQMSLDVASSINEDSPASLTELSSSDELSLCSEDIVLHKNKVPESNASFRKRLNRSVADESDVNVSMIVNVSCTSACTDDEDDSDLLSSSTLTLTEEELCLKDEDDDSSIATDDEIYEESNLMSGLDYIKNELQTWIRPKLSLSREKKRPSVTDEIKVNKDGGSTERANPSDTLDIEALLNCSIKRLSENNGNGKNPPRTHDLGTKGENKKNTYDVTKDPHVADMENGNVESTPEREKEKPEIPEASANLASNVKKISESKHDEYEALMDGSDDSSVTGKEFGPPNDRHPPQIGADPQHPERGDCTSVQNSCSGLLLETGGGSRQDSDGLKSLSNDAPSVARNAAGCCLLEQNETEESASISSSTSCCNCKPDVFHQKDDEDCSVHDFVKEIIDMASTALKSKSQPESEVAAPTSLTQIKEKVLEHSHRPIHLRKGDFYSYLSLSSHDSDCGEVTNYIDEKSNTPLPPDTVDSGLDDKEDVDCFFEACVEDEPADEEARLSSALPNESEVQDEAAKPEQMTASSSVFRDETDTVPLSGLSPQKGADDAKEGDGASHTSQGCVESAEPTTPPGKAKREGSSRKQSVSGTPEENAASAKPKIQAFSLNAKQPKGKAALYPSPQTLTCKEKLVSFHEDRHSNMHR

`COc1ccc(NC(=O)CSc2nc3ccccc3c(=O)[nH]2)c(OC)c1` [Z160]: the “heat stability of AKAP6” value at AKAP6 is on record as “did not influence the heat stability”. Further, in assay [1], the maximal respiration result is “increased” and the “mitochondrial respiration (primarily uncoupled respiration)” value is on record as “increased”. Moreover, the “pronase susceptibility of AKAP13” value on AKAP13 is “altered pronase susceptibility; also recorded: change of AKAP13 conformation”.
